From patent publication US20220226508A1, “METHODS AND COMPOSITIONS FOR TREATING EPILEPSY” (THE REGENTS OF THE UNIVERSITY OF CALIFORNIA, priority 2019, published 2022)
Entries after “also recorded” stand apart in the source; their conditions may differ. Like-named read-outs stand apart in the source and are kept apart here.

How the values were obtained:
human 5-HT2CR [1] = target: T1, human 5-HT2CR (Homo sapiens, UniProt P28335); test: Radioligand binding assay (NIMH PDSP), 5-HT2CR; settings: read-out: binding affinity (Ki) 5-HT2CR
T1 construct: expressed in transfected cells
T1 sequence (P28335 33-458): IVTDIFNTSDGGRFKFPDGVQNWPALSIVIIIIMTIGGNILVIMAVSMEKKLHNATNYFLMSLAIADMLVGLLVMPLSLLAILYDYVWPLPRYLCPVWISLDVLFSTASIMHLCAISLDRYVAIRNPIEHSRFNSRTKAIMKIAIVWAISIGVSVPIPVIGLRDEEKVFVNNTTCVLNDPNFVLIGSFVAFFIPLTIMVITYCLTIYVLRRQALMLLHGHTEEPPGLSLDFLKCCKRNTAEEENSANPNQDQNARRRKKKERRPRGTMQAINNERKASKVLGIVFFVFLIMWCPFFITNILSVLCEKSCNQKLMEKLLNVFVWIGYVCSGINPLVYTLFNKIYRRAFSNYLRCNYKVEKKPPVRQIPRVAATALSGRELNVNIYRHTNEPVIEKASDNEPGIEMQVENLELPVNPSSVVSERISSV
Description: (§1) Receptor Binding Assays. In vitro binding assay and Ki data were performed by the US National Institute of Mental Health Psychoactive Drug Screening Program (NIMH PDSP). Drugs were screened against recombinant, stably expressed human 5-HT2AR, 5-HT2BR, 5-HT2CR and H1. For specific binding assays please refer to detailed procedures at https://pdspdb.unc.edu/pdspWeb/ (Besnard, J. et al., Nature, 492, 215-220, 2012).

human H1 receptor = human H1 receptor (Homo sapiens, UniProt P35367); test: Radioligand binding assay (NIMH PDSP), H1; set-up: expressed in transfected cells; settings: read-out: binding affinity (Ki) H1
Description: as §1

human 5-HT2BR [2] = target: T2, human 5-HT2BR (Homo sapiens, UniProt P41595); test: biochemical; format: binding; settings: for Ki: read-out: binding affinity (Ki) 5-HT2BR; for specificity / selectivity for 5-HT2BR over other 5-HT2R subtypes: radioligand binding
T2 construct: expressed in transfected cells
Description: as §1

human 5-HT2AR [3] = target: T3, human 5-HT2AR (Homo sapiens, UniProt P28223); test: biochemical; format: binding; settings: read-out: binding affinity (Ki) 5-HT2AR
T3 construct: expressed in transfected cells
Description: as §1

scn1lab mutant zebrafish [4] = test: Locomotion assay of high-velocity seizure-like swim behavior; format: in vivo, zebrafish (Danio rerio); settings: for effect on seizure-like swim behavior (change in mean velocity): commercial 5-HT2BR/dopamine agonists, three concentrations; for effect on seizure-like swim behavior (change in mean velocity) / suppression of seizure-like swim behavior (change in mean velocity): 30 and 90 min exposure, threshold ≥40%; for suppression of seizure-like swim behavior (change in mean velocity): independently resynthesized compounds retested at 10, 50, 100 and 250 μM; for suppression of seizure-like swim behavior (change in mean swim velocity): initial library screen at 100 μM and 250 μM, 5 dpf larvae, threshold reduction ≥40%
Excerpt: Zebrafish maintenance. Zebrafish were raised under standard laboratory conditions in accordance with requirements outlined in the Guide for the Care and Use of Animals (ebrary Inc., 2011) and experiments were approved by the Institutional Animal Care and Use Committee (protocol #AN108659-03). Embryos were obtained by natural spawning of scn1lab (didy^s552) heterozygous animals that had been outcrossed to TL strain. Homozygous scn1lab mutants (n=2500) have dispersed melanosomes and appear visibly darker by 3 dpf compared to WT larvae.
Seizure monitoring. At 5 dpf individual zebrafish larvae were placed into a single well of a clear flat-bottomed 96-well microplate containing embryo media. Larvae were selected randomly as sex determination is not possible at this stage of development. All drug screening experiments were conducted in an unbiased manner by investigators blinded to the test compounds and all files coded for post hoc analysis. Microplates were placed inside the DanioVision and acclimated for 20 min at room temperature. Locomotion plots were obtained for each well at a recording epoch of 10 min using EthoVision XT software (DanioVision, Noldus Information Technology). Seizure scoring was performed using the following three-stage scale established for pentylenetetrazole-induced seizures: Stage 0, no or very little swim activity; Stage I, increased, brief bouts of swim activity; Stage II, rapid “whirlpool-like” circling swim behavior; and Stage III, paroxysmal whole-body clonus-like convulsions, and a brief loss of posture. WT fish are typically scored at Stage 0 or I. Plots were analyzed for distance travelled (in millimeters) and mean velocity (in millimeters per second). After 90 mins of drug exposure larvae were examined for toxic side-effects. Compounds that decreased or stopped the larva heartbeat, or reduced or eliminated the escape response when touched, were considered toxic.
Statistics. Data are presented as the mean±standard error of the mean (SEM), unless otherwise stated. For behavior analysis, the threshold for a change in mean swim velocity ≥40% (>1.5×SD of 250 control treated scn1lab) is considered significant. For comparison between more than two groups one-way ANOVA analysis was used. […] Differences considered statistically significant are indicated with asterisks (*P<0.05; **P<0.01).

human 5-HT2CR [5] = target: T1, human 5-HT2CR
human 5-HT2BR [6] = target: T2, human 5-HT2BR
human 5-HT2AR [7] = target: T3, human 5-HT2AR; settings: read-out: binding affinity (Ki) 5-HT2A / 5-HT2AR, cited from earlier work
scn1lab mutant zebrafish [8] = test: Local field potential (LFP) electrophysiology of electrographic seizure events; format: in vivo, zebrafish (Danio rerio); settings: 100 μM; 10 min LFP recording, 5 dpf larvae
Description: For electrophysiology studies, zebrafish larvae were anesthetized with cold and immobilized in 1.2% agarose; local field potential (LFP) recordings were obtained from forebrain or optic tectum structures using a single-electrode approach, as previously described (Baraban, S. C. et al., Neuroscience, 131, 759-768, 2005). Agarose-embedded LFP recording sessions of 10 min were obtained at 1 kHz. Epileptiform events were identified post hoc and defined as multi-spike or poly-spike upward or downward membrane deflections greater than 3× baseline noise level and 150-250 ms in duration (interictal-like) or greater than 5× baseline noise, multi-spike and >500 ms in duration (ictal-like); both events were counted using threshold detection settings in Clampfit (Molecular Devices; Sunnyvale, Calif.). During electrophysiology experiments larvae were continuously monitored for blood flow and heart rate using an Axiocam digital camera at video frame rate.
Monitoring electrographic brain activity to confirm seizure suppression is an essential assay to eliminate false positives from behavioral testing (Griffin, A. et al., Frontiers in Pharmacology, 9, 2018). By placing a microelectrode into a visually identified brain region of an agar-immobilized zebrafish larval, stable local field potential (LFP) recordings can be monitored for several hours (Baraban, S. C. et al., Nat Commun, 4, 2410, 2013). At 5 dpf LFP recordings of scn1Lab zebrafish larvae show an average of 250 abnormal electrographic seizure events during a 10 min recording epoch.

[9] = clemizole analogs, recombinant human receptor
[10] = known drugs and commercial compounds; read-out: binding affinity (Ki) 5-HT2C / 5-HT2CR; cited from earlier work
[11] = known drugs and commercial compounds; read-out: binding affinity (Ki) 5-HT2B / 5-HT2BR; cited from earlier work
[12] = known drugs and commercial compounds

T3 sequence (P28223 whole entry): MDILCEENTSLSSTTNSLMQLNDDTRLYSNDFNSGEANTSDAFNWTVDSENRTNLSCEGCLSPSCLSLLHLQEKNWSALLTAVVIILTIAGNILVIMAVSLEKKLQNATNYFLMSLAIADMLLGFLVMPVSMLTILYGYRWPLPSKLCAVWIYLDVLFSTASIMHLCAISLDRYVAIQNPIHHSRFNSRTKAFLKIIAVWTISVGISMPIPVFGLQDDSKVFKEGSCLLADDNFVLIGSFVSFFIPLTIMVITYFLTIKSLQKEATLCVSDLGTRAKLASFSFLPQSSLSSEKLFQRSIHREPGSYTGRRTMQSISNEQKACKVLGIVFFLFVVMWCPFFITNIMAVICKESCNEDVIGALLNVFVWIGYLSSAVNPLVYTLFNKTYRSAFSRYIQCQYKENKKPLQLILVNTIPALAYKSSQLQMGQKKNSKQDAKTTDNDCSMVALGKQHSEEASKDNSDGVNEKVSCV
T2 sequence (P41595 whole entry): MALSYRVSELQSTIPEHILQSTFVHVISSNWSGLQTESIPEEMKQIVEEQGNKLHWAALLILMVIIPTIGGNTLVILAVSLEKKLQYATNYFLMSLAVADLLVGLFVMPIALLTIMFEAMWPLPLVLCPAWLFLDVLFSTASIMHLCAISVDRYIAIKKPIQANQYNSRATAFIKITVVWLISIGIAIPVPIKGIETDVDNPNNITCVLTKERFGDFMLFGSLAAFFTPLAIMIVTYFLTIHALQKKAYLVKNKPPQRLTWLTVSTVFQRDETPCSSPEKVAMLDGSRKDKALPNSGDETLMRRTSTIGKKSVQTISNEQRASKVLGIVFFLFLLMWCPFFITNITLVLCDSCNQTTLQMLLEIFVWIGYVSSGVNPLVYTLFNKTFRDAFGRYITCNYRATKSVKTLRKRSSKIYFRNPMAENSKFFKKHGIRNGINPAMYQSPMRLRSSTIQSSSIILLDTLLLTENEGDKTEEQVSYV
human H1 receptor, sequence (P35367 whole entry): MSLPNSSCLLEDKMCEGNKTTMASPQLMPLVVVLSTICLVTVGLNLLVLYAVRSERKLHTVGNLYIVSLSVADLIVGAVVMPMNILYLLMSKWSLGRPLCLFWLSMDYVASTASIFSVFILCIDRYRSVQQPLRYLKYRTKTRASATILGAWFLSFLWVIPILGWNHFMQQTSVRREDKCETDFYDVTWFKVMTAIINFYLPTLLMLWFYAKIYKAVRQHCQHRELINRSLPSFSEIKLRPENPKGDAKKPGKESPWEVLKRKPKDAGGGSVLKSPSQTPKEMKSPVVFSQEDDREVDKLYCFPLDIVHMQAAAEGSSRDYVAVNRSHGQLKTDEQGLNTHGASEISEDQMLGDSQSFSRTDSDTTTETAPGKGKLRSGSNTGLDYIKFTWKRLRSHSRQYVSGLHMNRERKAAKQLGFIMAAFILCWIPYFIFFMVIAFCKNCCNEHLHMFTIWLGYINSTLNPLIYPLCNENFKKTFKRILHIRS

## Clc1ccc(Cn2c(CN3CCSC3)nc3ccccc32)cc1 [Compound 28]
Human 5-HT2CR [1]
  Ki: 1080 nM
Human H1 receptor
  Ki: 44 nM
Human 5-HT2BR [2]
  Ki: 464 nM
Human 5-HT2AR [3]
  Ki: > 10000 nM

## CN1CCc2cccc3c2[C@H]1Cc1ccc(O)c(O)c1-3 [apomorphine, reference compound]
scn1lab mutant zebrafish [4]
  effect on seizure-like swim behavior (change in mean velocity): significantly increased mean swim velocity

## CCN(CC)Cc1nc2ccccc2n1Cc1ccc(Cl)cc1 [Compound 24, ({1-[(4-Chlorophenyl)methyl]-1H-1,3-benzodiazol-2-yl}methyl)diethylamine]
Human 5-HT2CR [1]; [9]
  Ki: 1410 nM
Human H1 receptor; [9]
  Ki: 3.7 nM
Human 5-HT2BR [2]; [9]
  Ki: 115 nM
Human 5-HT2AR [3]; [9]
  Ki: 1260 nM

## Nc1ccc(Cn2c(CN3CCCC3)nc3ccccc32)cc1 [Compound 14]
Human 5-HT2CR [1]
  Ki: > 10000 nM
Human H1 receptor
  Ki: 27 nM
Human 5-HT2BR [2]
  specificity / selectivity for 5-HT2BR over other 5-HT2R subtypes: specific binding for 5HT2BR; also recorded: selectivity for 5-HT2BR
  Ki: 606 nM
Human 5-HT2AR [3]
  Ki: > 10000 nM
scn1lab mutant zebrafish [4]
  suppression of seizure-like swim behavior (change in mean velocity): no significant effect on the high-speed seizure-like behavior; also recorded: no significant effect on the swim behavior
  suppression of seizure-like swim behavior (change in mean swim velocity): no significant effect on swim behavior

## Cl.Clc1cccc(N2CCNCC2)c1 [mCPP, 1-(3-Chlorophenyl)piperazine hydrochloride, reference compound]
scn1lab mutant zebrafish [4]
  effect on seizure-like swim behavior (change in mean velocity): biphasic response

## CN1CCN(Cc2nc3ccccc3n2Cc2ccc(Cl)cc2)CC1 [Compound 26]
Human 5-HT2CR [1]
  Ki: 313 nM
Human H1 receptor
  Ki: 1.2 nM
Human 5-HT2BR [2]
  Ki: 20 nM
Human 5-HT2AR [3]
  Ki: 316 nM

## CC(N)Cc1cccc(C(F)(F)F)c1 (centres unmarked) [norfenfluramine]
Human 5-HT2CR [5]; read-out: binding affinity (Ki) 5-HT2C / 5-HT2CR; known drugs and commercial compounds; cited from earlier work
  Ki: 306 nM
scn1lab mutant zebrafish [4]
  effect on seizure-like swim behavior (change in mean velocity): suppressed convulsive swim behaviors in a concentration-dependent manner
Human 5-HT2BR [6]; read-out: binding affinity (Ki) 5-HT2B / 5-HT2BR; known drugs and commercial compounds; cited from earlier work
  Ki: 18 nM
Human 5-HT2AR [7]
  Ki: 194 nM

## Fc1ccc(Cn2c(CN3CCCC3)nc3ccccc32)cc1 [Compound 7]
Human 5-HT2CR [1]
  Ki: 345 nM
Human H1 receptor
  Ki: 1 nM
Human 5-HT2BR [2]
  Ki: 46 nM
Human 5-HT2AR [3]
  Ki: 15 nM

## Clc1ccc(Cn2c(CN3CCCCC3)nc3ccccc32)cc1 [Compound 22]
Human 5-HT2CR [1]
  Ki: 4580 nM
Human H1 receptor
  Ki: 8.5 nM
Human 5-HT2BR [2]
  Ki: 306 nM
Human 5-HT2AR [3]
  Ki: 623 nM

## Clc1ccc(Cn2c(CN3CCCC3)cc3ccccc32)cc1 [Compound 11, 1-[(4-Chlorophenyl)methyl]-2-[(pyrrolidin-1-yl)methyl]-1H-indole]
Human 5-HT2CR [1]; [9]
  Ki: 248 nM
Human H1 receptor; [9]
  Ki: 6.4 nM
Human 5-HT2BR [2]; [9]
  Ki: 134 nM
Human 5-HT2AR [3]; [9]
  Ki: 631 nM

## FC(F)(F)c1ccc(Cn2c(CN3CCCC3)nc3ccccc32)cc1 [Compound 6, 2-[(Pyrrolidin-1-yl)methyl]-1-{[4-(trifluoromethyl)phenyl]methyl}-1H-benzimidazole]
Human 5-HT2CR [1]
  Ki: > 10000 nM
scn1lab mutant zebrafish [8]
  frequency of electrographic seizure (epileptiform) events: significant changes in the frequency of events; also recorded: significant suppression of electrographic seizure activity
Human H1 receptor; [9]
  Ki: 16 nM
Human 5-HT2BR [2]; clemizole analogs, recombinant human receptor, listed as Comp. 6
  Ki: 258 nM
Human 5-HT2BR [2]; [9]
  Ki: 285 nM
Human 5-HT2BR [2]
  specificity / selectivity for 5-HT2BR over other 5-HT2R subtypes: specificity for 5-HT2BR over other 5-HT2R subtypes; also recorded: significant preference for 5-HT2BR
Human 5-HT2AR [3]
  Ki: > 10000 nM
scn1lab mutant zebrafish [4]
  suppression of seizure-like swim behavior (change in mean velocity): reduced the high-velocity seizure-like swim behavior
  suppression of seizure-like swim behavior (change in mean swim velocity): effective in suppressing

## CCCn1c(CN2CCCC2)nc2ccccc21 [Compound 5]
Human 5-HT2CR [1]
  Ki: > 10000 nM
Human H1 receptor
  Ki: 362 nM
Human 5-HT2BR [2]
  specificity / selectivity for 5-HT2BR over other 5-HT2R subtypes: specific binding for 5HT2BR; also recorded: selectivity for 5-HT2BR
  Ki: 219 nM
Human 5-HT2AR [3]
  Ki: > 10000 nM
scn1lab mutant zebrafish [4]
  suppression of seizure-like swim behavior (change in mean velocity): no significant effect on the high-speed seizure-like behavior; also recorded: no significant effect on the swim behavior
  suppression of seizure-like swim behavior (change in mean swim velocity): no significant effect on swim behavior

## CC(N)Cc1c[nH]c2ccc(OCc3cccs3)cc12 (centres unmarked) [BW-723C86, reference compound]
scn1lab mutant zebrafish [4]
  effect on seizure-like swim behavior (change in mean velocity): showed a decrease in seizure-like swim behavior, but also failed to reach our significance threshold

## Clc1ccc(Cn2c(CC3CCCC3)nc3ccccc32)cc1 [Compound 1, 1-[(4-Chlorophenyl)methyl]-2-(cyclopentylmethyl)-1H-benzimidazole]
Human 5-HT2CR [1]; [9]
  Ki: 2730 nM
Human 5-HT2BR [2]; [9]
  Ki: 501 nM
Human 5-HT2AR [3]
  Ki: > 10000 nM

## CN(C)C1CCc2cc(O)c(O)cc2C1 (centres unmarked) [TL-99]
Human 5-HT2CR [5]; [10]
  Ki: 2290 nM
scn1lab mutant zebrafish [4]
  effect on seizure-like swim behavior (change in mean velocity): failed to elicit any behavioral effect
Human 5-HT2BR [6]; [11]
  Ki: 2040 nM
Human 5-HT2AR [7]; [12]
  Ki: 2340 nM

## C[C@H](N)Cn1ccc2cc(F)c(Cl)cc21 [Ro 60-0175]
Human 5-HT2CR [5]; [10]
  Ki: 9.1 nM
scn1lab mutant zebrafish [4]
  effect on seizure-like swim behavior (change in mean velocity): consistently decreased mean velocity and was borderline effective after 90 mins of drug exposure
Human 5-HT2BR [6]; [11]
  Ki: 4.3 nM
Human 5-HT2AR [7]
  Ki: 37.2 nM

## c1ccc(Cn2c(CN3CCCC3)nc3ccccc32)cc1 [Compound 3]
Human 5-HT2CR [1]
  Ki: 292 nM
Human H1 receptor
  Ki: 4.8 nM
Human 5-HT2BR [2]
  Ki: 83 nM
Human 5-HT2AR [3]
  Ki: 327 nM

## Clc1cccc(COc2cncc(N3CCNCC3)n2)c1 [CP-809,101]
Human 5-HT2CR [5]; [10]
  Ki: 64 nM
scn1lab mutant zebrafish [4]
  effect on seizure-like swim behavior (change in mean velocity): biphasic response
Human 5-HT2BR [6]; [11]
  Ki: 6 nM
Human 5-HT2AR [7]; [12]
  Ki: 1.6 nM

## C=CCN1C[C@H](C(=O)N(CCCN(C)C)C(=O)NCC)C[C@@H]2c3cccc4[nH]cc(c34)C[C@H]21 [cabergoline]
Human 5-HT2CR [5]; [10]
  Ki: 692 nM
scn1lab mutant zebrafish [4]; 250 μM
  effect on convulsive swim behavior: significantly reduced convulsive swim-behavior
Human 5-HT2BR [6]; [11]
  Ki: 1.2 nM
Human 5-HT2AR [7]; [12]
  Ki: 6.17 nM
